According to US8026218B2, “Bifunctional analgesic compounds for opioid receptor agonists and neurokinin-1 receptor antagonists” (The University of Arizona, priority 2006, dated 2011):
Like-named read-outs stand apart in the source and are kept apart here. Peptide text beside a SMILES is read from it.

Columns and labels:
rat NK1 (rNK1) receptor = target: T1, rat NK1 (rNK1) receptor (Rattus norvegicus, UniProt P14600); test: Radioligand competition binding, [3H]substance P, rNK1/CHO membranes; conditions: for IC50: membranes from transfected CHO cells; for Ki: Affinity rNK1 (Ki; nM)
T1 construct: expressed in transfected cells; host or cells: CHO (rNK-1/CHO cell line from Dr. James Krause)
T1 sequence (P14600 whole entry): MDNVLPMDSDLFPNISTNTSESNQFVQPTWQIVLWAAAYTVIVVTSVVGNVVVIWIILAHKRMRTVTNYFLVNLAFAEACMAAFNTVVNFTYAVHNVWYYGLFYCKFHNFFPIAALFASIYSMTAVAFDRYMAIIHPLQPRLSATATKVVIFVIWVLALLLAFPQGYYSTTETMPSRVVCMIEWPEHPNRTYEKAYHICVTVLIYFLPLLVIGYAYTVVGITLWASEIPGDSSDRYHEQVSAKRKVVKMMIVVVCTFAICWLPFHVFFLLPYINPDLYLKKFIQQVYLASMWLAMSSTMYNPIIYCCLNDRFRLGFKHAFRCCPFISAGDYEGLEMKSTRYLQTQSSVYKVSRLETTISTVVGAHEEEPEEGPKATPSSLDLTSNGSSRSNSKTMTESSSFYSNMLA

[1] = target: T2, human δ opioid receptors (hDOR) (Homo sapiens, UniProt P41143); test: Radioligand competition binding, [3H]DPDPE, hDOR membranes
T2 construct: expressed in transfected cells; host or cells: HN9.10 neuroblastoma cell line, pCDNA3, neomycin-selected clones
T2 sequence (P41143 whole entry): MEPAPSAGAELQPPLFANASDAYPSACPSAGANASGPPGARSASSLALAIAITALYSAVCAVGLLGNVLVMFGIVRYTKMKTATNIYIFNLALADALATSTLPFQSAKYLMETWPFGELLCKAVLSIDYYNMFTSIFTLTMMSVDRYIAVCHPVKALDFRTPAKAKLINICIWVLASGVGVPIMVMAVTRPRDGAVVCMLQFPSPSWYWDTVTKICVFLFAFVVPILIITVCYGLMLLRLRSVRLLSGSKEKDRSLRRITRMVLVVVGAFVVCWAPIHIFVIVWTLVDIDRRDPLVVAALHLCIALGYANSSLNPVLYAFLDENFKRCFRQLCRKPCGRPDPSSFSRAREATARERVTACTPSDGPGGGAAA

[2] = target: T3, human NK1 receptor (hNK1) (Homo sapiens, UniProt P25103); test: Radioligand competition binding, [3H]-Substance P, hNK1
T3 construct: expressed in transfected cells
T3 sequence (P25103 whole entry): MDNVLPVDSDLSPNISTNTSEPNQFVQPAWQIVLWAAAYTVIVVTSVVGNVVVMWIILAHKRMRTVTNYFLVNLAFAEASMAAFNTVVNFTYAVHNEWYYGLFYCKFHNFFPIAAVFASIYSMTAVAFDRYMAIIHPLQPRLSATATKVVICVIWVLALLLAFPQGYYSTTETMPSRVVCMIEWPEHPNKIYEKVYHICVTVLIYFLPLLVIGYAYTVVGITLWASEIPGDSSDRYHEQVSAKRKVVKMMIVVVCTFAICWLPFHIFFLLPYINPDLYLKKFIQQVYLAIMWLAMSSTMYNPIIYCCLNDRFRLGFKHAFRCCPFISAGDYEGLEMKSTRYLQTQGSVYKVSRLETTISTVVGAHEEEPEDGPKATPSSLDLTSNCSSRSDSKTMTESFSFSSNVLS

[3] = target: T4, rat μ opioid receptors (rMOR) (Rattus norvegicus, UniProt P33535); test: biochemical; type: biochemical
T4 construct: expressed in transfected cells; host or cells: HN9.10 neuroblastoma cell line, pCDNA3, neomycin-selected clones
T4 sequence (P33535 whole entry): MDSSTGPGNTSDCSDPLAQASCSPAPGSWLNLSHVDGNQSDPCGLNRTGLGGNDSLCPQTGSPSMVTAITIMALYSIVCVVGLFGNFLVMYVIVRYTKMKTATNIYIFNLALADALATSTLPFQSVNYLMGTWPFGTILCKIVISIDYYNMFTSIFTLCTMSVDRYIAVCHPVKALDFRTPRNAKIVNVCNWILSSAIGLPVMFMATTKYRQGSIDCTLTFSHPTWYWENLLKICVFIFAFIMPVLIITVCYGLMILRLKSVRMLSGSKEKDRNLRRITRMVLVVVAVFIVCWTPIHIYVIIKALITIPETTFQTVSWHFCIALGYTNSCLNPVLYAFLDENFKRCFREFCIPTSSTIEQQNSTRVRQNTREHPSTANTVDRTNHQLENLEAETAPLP

δ opioid receptors (MVD) = target: T5, δ opioid receptors (MVD) (Mus musculus, UniProt P32300); test: Mouse isolated vas deferens (MVD) assay, opioid agonist
T5 construct: from tissue; host or cells: mouse (ICR) isolated vas deferens
T5 sequence (P32300 whole entry): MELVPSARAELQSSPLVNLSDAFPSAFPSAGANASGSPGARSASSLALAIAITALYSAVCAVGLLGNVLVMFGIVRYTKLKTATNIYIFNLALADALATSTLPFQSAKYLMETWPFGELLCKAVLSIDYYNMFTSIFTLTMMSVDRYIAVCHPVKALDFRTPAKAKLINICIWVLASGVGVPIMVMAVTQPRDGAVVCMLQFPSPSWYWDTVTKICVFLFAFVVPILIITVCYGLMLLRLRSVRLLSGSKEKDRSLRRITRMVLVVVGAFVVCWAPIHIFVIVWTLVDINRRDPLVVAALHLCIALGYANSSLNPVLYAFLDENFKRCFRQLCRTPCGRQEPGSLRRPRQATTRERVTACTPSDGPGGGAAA

[4] = target: T2, human δ opioid receptors (hDOR); test: [35S]GTP-γ-S binding assay, hDOR; type: biochemical
μ opioid receptors (GPI) = test: Guinea pig isolated ileum (GPI) assay, opioid agonist; design: GPI/LMMP Opioid(m) Agonist, % inh.: unit of the concentration uncertain;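 note: inhibition of electrically evoked contractions (0.1 Hz, 0.4 msec, supramaximal voltage) in organ baths at 37 °C, contraction height 3 min after each cumulative dose versus the 1 min before dosing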
[5] = target: T6, Substance P receptors (guinea pig NK1) (Cavia porcellus, UniProt P30547); test: Guinea pig isolated ileum (GPI) assay with substance P stimulation in presence of 1 μM naloxone; conditions: for activation at 1 µM: read-out: Substance P GPI agonist (A50), contraction relative to initial muscle contraction with KCl
T6 construct: from tissue; host or cells: guinea pig (Hartley) ileum LMMP, 1 μM naloxone present
T6 sequence (P30547 whole entry): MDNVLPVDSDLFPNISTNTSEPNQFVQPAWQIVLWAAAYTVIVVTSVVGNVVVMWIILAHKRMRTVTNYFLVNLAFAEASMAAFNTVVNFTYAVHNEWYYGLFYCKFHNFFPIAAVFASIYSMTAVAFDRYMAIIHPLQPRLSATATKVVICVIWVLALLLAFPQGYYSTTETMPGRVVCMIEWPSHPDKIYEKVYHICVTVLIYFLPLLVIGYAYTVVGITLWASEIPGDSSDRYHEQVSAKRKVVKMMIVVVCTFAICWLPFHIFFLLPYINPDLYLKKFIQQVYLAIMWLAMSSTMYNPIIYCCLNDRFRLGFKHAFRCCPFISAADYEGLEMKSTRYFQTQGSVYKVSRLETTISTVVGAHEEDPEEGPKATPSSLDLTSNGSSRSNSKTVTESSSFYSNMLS
Protocol: Testing stopped at 1 mM concentrations of the test compound.
Analysis of GPI and MVD assays. For opioid data analysis, percentage inhibition was calculated using the average tissue contraction height for 1 min preceding the addition of the agonist divided by the contraction height 3 min after exposure to the dose of agonist. […] IC50 and Emax estimates were determined by computerized nonlinear least-squares analysis (the pharmacological statistics package FlashCalc: Dr. Michael Ossipov, University of Arizona, Tucson, Ariz.). […] A50 values represent the mean of not less than 4 tissues. A50 and Emax estimates were determined by computerized nonlinear least-squares analysis (FlashCalc).

[6] = target: T4, rat μ opioid receptors (rMOR); test: Radioligand competition binding, [3H]DAMGO, rMOR membranes; conditions: for LogIC50, rMOR, [3H]DAMGO: membranes from transfected HN9.10 cells
[7] = In vitro stability in rat plasma at 37° C.; type: in vitro ADME; conditions: rat, rat plasma, FIG. 47, read-out: T1/2 in rat plasma
Protocol: The derivative compounds were tested for their metabolite stability. The compounds were incubated in rat plasma at 37° C., and aliquots were withdrawn at various time points and analyzed by HPLC to determine the concentration of remaining compound derivatives (FIGS. 15-16, 36, and 47-48).
In Vitro Stability of compound derivatives in Rat Plasm (Yamamoto, 2007, J. Am. Chem. Soc. submitted). Stock solution of compounds (50 mg/mL in DMSO) were diluted 1000-fold into rat plasma (Lot 24927, Pel-Freez Biologicals, Rogers, Ak.) to result in an incubation concentration of 50 μg/mL. All samples were incubated at 37° C. for 6 h, and 200 μL of aliquots were withdrawn at 1 h, 2 h, 4 h and 6 h. […] The samples were run in triplicate. Discussion.

[8] = IC50, rNK1, Substance P radioligand
[9] = Table 27, read-out: GTP binding rMOR EC50
[10] = Table 27, read-out: GTP binding rMOR Emax (%)
[11] = Table 39, read-out: GTP binding rMOR EC50
[12] = Table 39, read-out: GTP binding rMOR Emax
[13] = net total bound/basal binding × 100, read-out: Emax, rMOR, [35S]GTP-γ-S binding
[14] = read-out: EC50, rMOR, [35S]GTP-γ-S binding
[15] = Table 28, read-out: MVD Opioid (d) Agonist (IC50; nM)
[16] = Table 39, read-out: MVD opioid(delta) agonist (IC50; nM)
[17] = electrically stimulated isolated tissue, read-out: MVD (δ), IC50
[18] = Table 39, read-out: GTP binding hDOR Emax
[19] = Table 39, read-out: GPI/LMMP opioid(mu) agonist (IC50; nM)
[20] = Substance P antagonist, GPI, Ke, in the presence of 1 μM naloxone
[21] = Table 39, concentration not given

Compound	IC50 (rat NK1 (rNK1) receptor; [8])	Ki ([1]; read-out: Ki, hDOR, [3H]DPDPE)	Ki [2]	LogEC50, rMOR, [35S]GTP-γ-S binding [3]	EC50 [3, 9]	Emax [3, 10]	EC50 [3, 11]	Emax [3, 12]	Emax [3, 13]	EC50 [3, 14]	IC50 (δ opioid receptors (MVD))	IC50 (δ opioid receptors (MVD); [15])	IC50 (δ opioid receptors (MVD); [16])	IC50 (δ opioid receptors (MVD); [17])	LogEC50, hDOR, [35S]GTP-γ-S binding [4]	Emax [4, 18]	IC50 (μ opioid receptors (GPI); [19])	Kb [5, 20]	Ki [1]	Ki [6]	further results
CC(C)C[C@H](NC(=O)[C@@H]1CCCN1C(=O)CNC(=O)[C@H](Cc1ccccc1)NC(=O)CNC(=O)[C@@H](C)NC(=O)[C@@H](N)Cc1ccc(O)cc1)C(=O)N[C@@H](Cc1c[nH]c2ccccc12)C(=O)OCc1cc(C(F)(F)F)cc(C(F)(F)F)c1 [TY006, H-Tyr-D-Ala-Gly-Phe-Gly-Pro-Leu-Trp-O-3,5-Bzl(CF3)2] (HELM PEPTIDE1{Y.[dA].G.F.G.P.L.W.[FC(F)(F)c1cc(CO[*:1])cc(C(F)(F)F)c1]}$$$$V2.0)	15.6 nM	36.1 nM	0.016 nM	−7.38 ± 0.20	41.7 nM	35.9%	41.7 nM	35.9%	39%	41.7 nM	172 ± 26 nM	172 nM	172 nM	171 nM	−7.30 ± 0.24	33.6%	384 nM	5.4 ± 1.4 nM			Ki ([1]; Table 27, read-out: Affinity hDOR (Ki; nM)): 36.1 nM; Ki ([1]; Table 39, read-out: Affinity hDOR (Ki; nM)): 36.1 nM; EC50 ([4]; Table 27, read-out: GTP binding hDOR EC50): 50.2 nM; Emax ([4]; Table 27, read-out: GTP binding hDOR Emax (%)): 33.6%; EC50 ([4]; Table 39, read-out: GTP binding hDOR EC50): 50.2 nM; Emax ([4]; net total bound/basal binding × 100, read-out: Emax, hDOR, [35S]GTP-γ-S binding): 35%; EC50 ([4]; read-out: EC50, hDOR, [35S]GTP-γ-S binding): 50.2 nM; IC50 (μ opioid receptors (GPI); Table 28, read-out: GPI/LMMP Opioid(m) Agonist (IC50; nM)): 384 nM; IC50 (μ opioid receptors (GPI); electrically stimulated isolated tissue, read-out: GPI (μ), IC50): 384 nM; IC50 [5]: 5.4 nM; activation at 1 µM [5]: 0%; Ki ([6]; Table 27, read-out: Affinity rMOR (Ki; nM)): 27 nM; Ki ([6]; Table 39, read-out: Affinity rMOR (Ki; nM)): 27 nM; LogIC50, rMOR, [3H]DAMGO [6]: −7.24 ± 0.15; Ki ([6]; read-out: Ki, rMOR, [3H]DAMGO): 27 nM
CC(C)C[C@H](NC(=O)[C@@H]1CCCN1C(=O)[C@@H](Cc1ccccc1)NC(=O)[C@H](Cc1ccccc1)NC(=O)CNC(=O)[C@@H](C)NC(=O)[C@@H](N)Cc1ccc(O)cc1)C(=O)N[C@@H](Cc1c[nH]c2ccccc12)C(=O)OCc1cc(C(F)(F)F)cc(C(F)(F)F)c1 [TY007, H-Tyr-D-Ala-Gly-Phe-D-Phe-Pro-Leu-Trp-O-3,5-Bzl(CF3)2]	66.7 nM	93 nM	1.3 nM	−6.46 ± 0.38	345 nM	23.6%	345 nM	23.6%	22%	345 nM		412 nM	412 nM	412 ± 106 nM	−7.78 ± 0.36			69.6 ± 7.1 nM	110 nM	410 nM	IC50 (rat NK1 (rNK1) receptor; LogIC50, rNK1, Substance P radioligand): 60.3 nM; Ki(μ)/Ki(δ) ([1]; binding, rMOR vs hDOR): 4.1; LogIC50, hDOR, [3H]DPDPE ([1]; membranes from transfected HN9.10 cells): −6.70 ± 0.13; Ki(μ)/Ki(δ) [4]: 20.5; Emax ([4]; read-out: Emax, hDOR, [35S]GTP-γ-S binding): 26%; EC50 ([4]; read-out: GTP binding hDOR EC50): 16.7 nM; Emax ([4]; read-out: GTP binding hDOR Emax): 22.9%; Emax ([4]; read-out: GTP binding hDOR Emax (%)): 22.9%; GPI/LMMP Opioid(m) Agonist, % inh. (μ opioid receptors (GPI); Table 28, at 1 (unit uncertain)): 9% inh. at 1 mM; GPI/LMMP opioid(mu) agonist, % (μ opioid receptors (GPI); [21]): 9.20%; GPI (μ), effect at single concentration (μ opioid receptors (GPI); at 1 μM): 9% at 1 μM^b; GPI/LMMP SP Agonist (IC50; nM) [5, 21]: none; activation at 1 µM [5]: 0%; LogIC50, rMOR, [3H]DAMGO [6]: −6.09 ± 0.15; Ki ([6]; read-out: Ki, rMOR, [3H]DAMGO): 381 nM
CSCC[C@H](NC(=O)[C@H](Cc1ccccc1)NC(=O)CNC(=O)[C@@H](C)NC(=O)[C@@H](N)Cc1c(C)cc(O)cc1C)C(=O)N1CCC[C@H]1C(=O)N[C@@H](CC(C)C)C(=O)N[C@@H](Cc1c[nH]c2ccccc12)C(=O)OCc1cc(C(F)(F)F)cc(C(F)(F)F)c1 [TY033]			1.2 nM					59%			1.27 nM					200%	100 nM		0.22 nM	1.2 nM	Ki (rat NK1 (rNK1) receptor; Table 29): 0.96 nM; IC50 (μ opioid receptors (GPI); Table 30, read-out: GPI/LMMP Opioid(m) Agonist (IC50; nM)): 100 nM; Kb ([5]; GPI/LMMP Substance P Antagonist (Ke; nM), Table 30): 24.5 nM
CCCC[C@@H]1NC(=O)[C@H](Cc2ccccc2)NC(=O)CNC(=O)[C@H](NC(=O)[C@@H](N)Cc2ccc(O)cc2)C(C)(C)SSC(C)(C)[C@@H](C(=O)N[C@@H](Cc2c[nH]c3ccccc23)C(=O)NCc2cc(C(F)(F)F)cc(C(F)(F)F)c2)NC(=O)[C@@H]2CCCN2C1=O [TY047] (HELM PEPTIDE1{Y.[CC(C)(S[*:3])[C@@H](N[*:1])C(=O)[*:2]].G.F.[Nle].P.[Pen].W.[FC(F)(F)c1cc(CN[*:1])cc(C(F)(F)F)c1]}$PEPTIDE1,PEPTIDE1,2:R3-7:R3$$$V2.0; N-terminus assumed)							2910 nM												152 nM	1970 nM	Ki (rat NK1 (rNK1) receptor; Table 23): 163 nM; half-life at 50 μg/mL [7]: > 24 h
